According to patent US5498788A, “Inclusion complexes of clavulanic acid and of potassium salts thereof with hydrophobic β-cyclodextrin derivatives a process for the preparation thereof” (LEK, tovarna farmacevtskih, priority 1992, dated 1996):

Columns and labels:
[1] = Stability test of complexed and uncomplexed potassium clavulanate in artificial gastric juice (pH 1.2, 37° C.); format: physicochemical
Procedure: Stability test of complexed and uncomplexed potassium clavulanate in artificial gastric juice (pH 1.2) at the temperature of 37° C.
For the test the following samples were used:
Medium: artificial gastric juice--aq. HCl/NaCl buffer, pH 1.2, according to USP XXII.
Concentration of clavulanic acid (abbr. KA) in samples: 4 mg/ml.
The samples 1 to 3 were dissolved under stirring in an artificial gastric juice (100 ml) thermostated at 37° C., at the concentration of 4 mg/ml with regard to the clavulanic acid. Subsequently, 100 μl aliquots were taken at 5 min intervals for analysis by the HPLC, until a more than 95% KA decomposition was found. The solution was stirred all the time at the temperature of 37° C. ±0.5° C.
Separately, a series of ten 10 ml aliquots of KA-TA-β-CD suspension in a buffer of a pH of 1.2 (cone. of KA=4 mg/ml), which were constantly stirred during thermostating at 37° C., was prepared. At time intervals of 5 to 10 min, the individual aliquots were filtered (membrane filter 0.4 μm) and in the clear filtrate the concentration of clavulanic acid was determined by HPLC. The KA content at times up to 90 min of thermostating was noted.
The results of measurements after 15, 30, 45, 60 and 90 min of thermostating the samples at 37° C. in a buffer at pH 1.2 are shown in following Table.

[2] = penicillinic and cephalosporin class; cited from earlier work
[3] = tested on: β-lactamases; settings: cited from earlier work
[4] = cited from earlier work

Row | SMILES | remaining at 0.25 h ([1]; artificial gastric juice, 15 min thermostating, pH 1.2, 37° C., KA 4 mg/ml, read-out: KA (undecomp.) as to the initial KA conc. (100%) in samples) [%] | remaining at 0.5 h ([1]; artificial gastric juice, 30 min thermostating, pH 1.2, 37° C., KA 4 mg/ml, read-out: KA (undecomp.) as to the initial KA conc. (100%) in samples) [%] | remaining at 0.75 h ([1]; artificial gastric juice, 45 min thermostating, pH 1.2, 37° C., KA 4 mg/ml, read-out: KA (undecomp.) as to the initial KA conc. (100%) in samples) [%] | time of 95% decomposition of clavulanic acid (t95%) ([1]; pH 1.2, 37° C. (FIG. 9)) [min] | effect in combination with β-lactam antibiotics [2] | inhibition of β-lactamases (in words) [3] | time of 95% decomposition of clavulanic acid ([1]; conditions present in gastric juice, 37° C.) [min] | solubility in water (in words) [4]
1 | O=C(O)[C@H]1/C(=C/CO)O[C@@H]2CC(=O)N21 [KK, potassium clavulanate] | 18.1 | 1.3 | 0 | 26 |  |  |  | 
2 | O=C(O)[C@H]1/C(=C/CO)O[C@@H]2CC(=O)N21 [clavulanic acid, (2R,5R,Z)-3-(2-hydroxyethylidene)-7-oxo-4-oxa-1-azabicyclo[3.2.0]heptane-2-carboxylic acid] |  |  |  |  | synergistic effect | inhibitors of β-lactamases | 26 | very well soluble in water
